Data from ChEMBL document CHEMBL3797178, “Synthesis, antimycobacterial and antibacterial activity of 1-(6-amino-3,5-difluoropyridin-2-yl)fluoroquinolone derivatives containing an oxime functional moiety” (2016).
Converted amounts (≈) assume the structure as drawn.

Assays:
Format in all cases: functional
Escherichia coli [1] = assay: Antibacterial activity against Escherichia coli 14-1 after 18 to 24 hrs by CLSI M100-S11 method
Escherichia coli [2] = assay: Antibacterial activity against extended-spectrum beta-lactamase-producing Escherichia coli 14-1 after 18 to 24 hrs by CLSI M100-S11 method
Staphylococcus aureus [3] = assay: Antibacterial activity against methicillin-sensitive Staphylococcus aureus 14-2 after 18 to 24 hrs by CLSI M100-S11 method
Enterococcus faecalis [4] = assay: Antibacterial activity against Enterococcus faecalis 14-2 after 18 to 24 hrs by CLSI M100-S11 method
Klebsiella pneumoniae [5] = assay: Antibacterial activity against Klebsiella pneumoniae 14-3 after 18 to 24 hrs by CLSI M100-S11 method
[6] = tested on: Staphylococcus epidermidis; assay: Antibacterial activity against methicillin-resistant Staphylococcus epidermidis 14-39 after 18 to 24 hrs by CLSI M100-S11 method
Klebsiella pneumoniae [7] = assay: Antibacterial activity against Klebsiella pneumoniae 14-1 after 18 to 24 hrs by CLSI M100-S11 method
[8] = tested on: Staphylococcus epidermidis; assay: Antibacterial activity against methicillin-sensitive Staphylococcus epidermidis 14-2 after 18 to 24 hrs by CLSI M100-S11 method
Pseudomonas aeruginosa [9] = assay: Antibacterial activity against Pseudomonas aeruginosa 14-15 after 18 to 24 hrs by CLSI M100-S11 method
Staphylococcus aureus [10] = assay: Antibacterial activity against Staphylococcus aureus CMCC 26003 after 18 to 24 hrs by CLSI M100-S11 method
Klebsiella pneumoniae [11] = assay: Antibacterial activity against extended-spectrum beta-lactamase-producing Klebsiella pneumoniae 14-18 after 18 to 24 hrs by CLSI M100-S11 method
[12] = tested on: Staphylococcus epidermidis; assay: Antibacterial activity against methicillin-sensitive Staphylococcus epidermidis 14-4 after 18 to 24 hrs by CLSI M100-S11 method
Escherichia coli [13] = assay: Antibacterial activity against Escherichia coli 14-2 after 18 to 24 hrs by CLSI M100-S11 method
Klebsiella pneumoniae [14] = assay: Antibacterial activity against extended-spectrum beta-lactamase-producing Klebsiella pneumoniae 14-19 after 18 to 24 hrs by CLSI M100-S11 method
Pseudomonas aeruginosa [15] = assay: Antibacterial activity against Pseudomonas aeruginosa 14-14 after 18 to 24 hrs by CLSI M100-S11 method
Escherichia coli [16] = assay: Antibacterial activity against extended-spectrum beta-lactamase-producing Escherichia coli 14-2 after 18 to 24 hrs by CLSI M100-S11 method
[17] = tested on: Staphylococcus epidermidis; assay: Antibacterial activity against methicillin-sensitive Staphylococcus epidermidis 14-6 after 18 to 24 hrs by CLSI M100-S11 method
Escherichia coli [18] = assay: Antibacterial activity against Escherichia coli ATCC 25922 after 18 to 24 hrs by CLSI M100-S11 method
Staphylococcus aureus [19] = assay: Antibacterial activity against methicillin-sensitive Staphylococcus aureus 14-4 after 18 to 24 hrs by CLSI M100-S11 method
Streptococcus pneumoniae = assay: Antibacterial activity against Streptococcus pneumoniae ATCC 19615 after 18 to 24 hrs by CLSI M100-S11 method
Enterococcus faecalis [20] = assay: Antibacterial activity against Enterococcus faecalis 14-1 after 18 to 24 hrs by CLSI M100-S11 method
Enterococcus faecium [21] = assay: Antibacterial activity against Enterococcus faecium 14-2 after 18 to 24 hrs by CLSI M100-S11 method
Staphylococcus aureus [22] = assay: Antibacterial activity against methicillin-resistant Staphylococcus aureus 14-4 after 18 to 24 hrs by CLSI M100-S11 method
Klebsiella pneumoniae [23] = assay: Antibacterial activity against extended-spectrum beta-lactamase-producing Klebsiella pneumoniae 14-17 after 18 to 24 hrs by CLSI M100-S11 method
Pseudomonas aeruginosa [24] = assay: Antibacterial activity against Pseudomonas aeruginosa ATCC 27853 after 18 to 24 hrs by CLSI M100-S11 method
[25] = tested on: Staphylococcus epidermidis; assay: Antibacterial activity against methicillin-resistant Staphylococcus epidermidis 14-37 after 18 to 24 hrs by CLSI M100-S11 method
Pseudomonas aeruginosa [26] = assay: Antibacterial activity against Pseudomonas aeruginosa 14-19 after 18 to 24 hrs by CLSI M100-S11 method
Enterococcus faecium [27] = assay: Antibacterial activity against Enterococcus faecium 14-1 after 18 to 24 hrs by CLSI M100-S11 method
Klebsiella pneumoniae [28] = assay: Antibacterial activity against Klebsiella pneumoniae 14-2 after 18 to 24 hrs by CLSI M100-S11 method
Staphylococcus aureus [29] = assay: Antibacterial activity against methicillin-sensitive Staphylococcus aureus 14-3 after 18 to 24 hrs by CLSI M100-S11 method
Klebsiella pneumoniae [30] = assay: Antibacterial activity against Klebsiella pneumoniae 14-4 after 18 to 24 hrs by CLSI M100-S11 method
Pseudomonas aeruginosa [31] = assay: Antibacterial activity against Pseudomonas aeruginosa 14-9 after 18 to 24 hrs by CLSI M100-S11 method
[32] = tested on: Staphylococcus epidermidis; assay: Antibacterial activity against methicillin-resistant Staphylococcus epidermidis 14-22 after 18 to 24 hrs by CLSI M100-S11 method
Staphylococcus aureus [33] = assay: Antibacterial activity against methicillin-resistant Staphylococcus aureus 14-5 after 18 to 24 hrs by CLSI M100-S11 method
[34] = tested on: Mycobacterium tuberculosis; assay: Antimycobacterial activity against Mycobacterium tuberculosis H37Rv ATCC 27294 after 3 days by microplate Alamar Blue assay; details: H37Rv ATCC 27294, 72 h
Pseudomonas aeruginosa [35] = assay: Antibacterial activity against Pseudomonas aeruginosa 14-16 after 18 to 24 hrs by CLSI M100-S11 method
Enterococcus faecalis [36] = assay: Antibacterial activity against Enterococcus faecalis 14-3 after 18 to 24 hrs by CLSI M100-S11 method

`NC[C@@H]1/C(=N/OCc2ccccc2)CN1c1nc2c(cc1F)c(=O)c(C(=O)O)cn2-c1nc(N)c(F)cc1F` was tested, and the MIC (Escherichia coli [1]) was over 128 µg/mL, the MIC (Escherichia coli [2]) was 128 µg/mL (≈ 237 µM) and the MIC (Staphylococcus aureus [3]) was 4 µg/mL (≈ 7.41 µM). For the same compound, the MIC (Enterococcus faecalis [4]) was over 128 µg/mL, the MIC (Klebsiella pneumoniae [5]) was over 128 µg/mL and the MIC [6] was over 133 µg/mL. The MIC (Klebsiella pneumoniae [7]) was over 128 µg/mL, the MIC [8] was over 128 µg/mL and the MIC (Pseudomonas aeruginosa [9]) was 128 µg/mL (≈ 237 µM). It also gave an MIC (Staphylococcus aureus [10]) of 4 µg/mL (≈ 7.41 µM), an MIC (Klebsiella pneumoniae [11]) of 128 µg/mL (≈ 237 µM) and an MIC [12] of over 128 µg/mL. The MIC (Escherichia coli [13]) was over 128 µg/mL, the MIC (Klebsiella pneumoniae [14]) was over 128 µg/mL and the MIC (Pseudomonas aeruginosa [15]) was 128 µg/mL (≈ 237 µM). The MIC (Escherichia coli [16]) was over 128 µg/mL, the MIC [17] was over 128 µg/mL and the MIC (Escherichia coli [18]) was 8 µg/mL (≈ 14.8 µM). For the same compound, the MIC (Staphylococcus aureus [19]) was 4 µg/mL (≈ 7.41 µM), the MIC (Streptococcus pneumoniae) was 64 µg/mL (≈ 119 µM) and the MIC (Enterococcus faecalis [20]) was over 128 µg/mL. For the same compound, the MIC (Enterococcus faecium [21]) was 32 µg/mL (≈ 59.3 µM), the MIC (Staphylococcus aureus [22]) was over 128 µg/mL and the MIC (Klebsiella pneumoniae [23]) was over 128 µg/mL. It also gave an MIC (Pseudomonas aeruginosa [24]) of 128 µg/mL (≈ 237 µM), an MIC [25] of over 128 µg/mL and an MIC (Pseudomonas aeruginosa [26]) of 128 µg/mL (≈ 237 µM). The MIC (Enterococcus faecium [27]) was over 128 µg/mL, the MIC (Klebsiella pneumoniae [28]) was over 128 µg/mL and the MIC (Staphylococcus aureus [29]) was 8 µg/mL (≈ 14.8 µM). The MIC (Klebsiella pneumoniae [30]) was over 128 µg/mL, the MIC (Pseudomonas aeruginosa [31]) was 128 µg/mL (≈ 237 µM) and the MIC [32] was over 128 µg/mL. It also gave an MIC (Staphylococcus aureus [33]) of over 128 µg/mL, an MIC [34] of over 32 µg/mL and an MIC (Pseudomonas aeruginosa [35]) of 128 µg/mL (≈ 237 µM). The MIC (Enterococcus faecalis [36]) was over 128 µg/mL.

`CO/N=C1\CN(c2c(F)cc3c(=O)c(C(=O)O)cn(-c4nc(N)c(F)cc4F)c3c2Cl)CC1CN` (stereo unspecified) showed an MIC (Escherichia coli [1]) of 64 µg/mL (≈ 125 µM), an MIC (Escherichia coli [2]) of 2 µg/mL (≈ 3.91 µM) and an MIC (Staphylococcus aureus [3]) of 0.06 µg/mL (≈ 0.117 µM). It also gave an MIC (Enterococcus faecalis [4]) of 64 µg/mL (≈ 125 µM), an MIC (Klebsiella pneumoniae [5]) of 128 µg/mL (≈ 251 µM) and an MIC [6] of 32 µg/mL (≈ 62.6 µM). The MIC (Klebsiella pneumoniae [7]) was 64 µg/mL (≈ 125 µM), the MIC [8] was 64 µg/mL (≈ 125 µM) and the MIC (Pseudomonas aeruginosa [9]) was 8 µg/mL (≈ 15.7 µM). For the same compound, the MIC (Staphylococcus aureus [10]) was 0.03 µg/mL (≈ 0.0587 µM), the MIC (Klebsiella pneumoniae [11]) was 16 µg/mL (≈ 31.3 µM) and the MIC [12] was 32 µg/mL (≈ 62.6 µM). The MIC (Escherichia coli [13]) was 64 µg/mL (≈ 125 µM), the MIC (Klebsiella pneumoniae [14]) was 128 µg/mL (≈ 251 µM) and the MIC (Pseudomonas aeruginosa [15]) was 8 µg/mL (≈ 15.7 µM). For the same compound, the MIC (Escherichia coli [16]) was 64 µg/mL (≈ 125 µM), the MIC [17] was 64 µg/mL (≈ 125 µM) and the MIC (Escherichia coli [18]) was 0.125 µg/mL (≈ 0.245 µM). The MIC (Staphylococcus aureus [19]) was 0.25 µg/mL (≈ 0.489 µM), the MIC (Streptococcus pneumoniae) was 16 µg/mL (≈ 31.3 µM) and the MIC (Enterococcus faecalis [20]) was 16 µg/mL (≈ 31.3 µM). It also gave an MIC (Enterococcus faecium [21]) of 8 µg/mL (≈ 15.7 µM), an MIC (Staphylococcus aureus [22]) of 128 µg/mL (≈ 251 µM) and an MIC (Klebsiella pneumoniae [23]) of 32 µg/mL (≈ 62.6 µM). It also gave an MIC (Pseudomonas aeruginosa [24]) of 4 µg/mL (≈ 7.83 µM), an MIC [25] of 64 µg/mL (≈ 125 µM) and an MIC (Pseudomonas aeruginosa [26]) of 8 µg/mL (≈ 15.7 µM). The MIC (Enterococcus faecium [27]) was over 128 µg/mL, the MIC (Klebsiella pneumoniae [28]) was over 128 µg/mL and the MIC (Staphylococcus aureus [29]) was 0.125 µg/mL (≈ 0.245 µM). It also gave an MIC (Klebsiella pneumoniae [30]) of 128 µg/mL (≈ 251 µM), an MIC (Pseudomonas aeruginosa [31]) of 8 µg/mL (≈ 15.7 µM) and an MIC [32] of 64 µg/mL (≈ 125 µM). It also gave an MIC (Staphylococcus aureus [33]) of 128 µg/mL (≈ 251 µM), an MIC [34] of 30.5 µg/mL (≈ 59.7 µM) and an MIC (Pseudomonas aeruginosa [35]) of 8 µg/mL (≈ 15.7 µM). For the same compound, the MIC (Enterococcus faecalis [36]) was 32 µg/mL (≈ 62.6 µM).

`CO/N=C1\CCN(c2c(F)cc3c(=O)c(C(=O)O)cn(-c4nc(N)c(F)cc4F)c3c2Cl)CC1N` (stereo unspecified) showed an MIC (Escherichia coli [1]) of over 128 µg/mL, an MIC (Escherichia coli [2]) of 64 µg/mL (≈ 125 µM) and an MIC (Staphylococcus aureus [3]) of 0.5 µg/mL (≈ 0.979 µM). It also gave an MIC (Enterococcus faecalis [4]) of over 128 µg/mL, an MIC (Klebsiella pneumoniae [5]) of over 128 µg/mL and an MIC [6] of over 128 µg/mL. For the same compound, the MIC (Klebsiella pneumoniae [7]) was over 128 µg/mL, the MIC [8] was over 128 µg/mL and the MIC (Pseudomonas aeruginosa [9]) was 64 µg/mL (≈ 125 µM). The MIC (Staphylococcus aureus [10]) was 0.5 µg/mL (≈ 0.979 µM), the MIC (Klebsiella pneumoniae [11]) was 128 µg/mL (≈ 251 µM) and the MIC [12] was 128 µg/mL (≈ 251 µM). It also gave an MIC (Escherichia coli [13]) of over 128 µg/mL, an MIC (Klebsiella pneumoniae [14]) of over 128 µg/mL and an MIC (Pseudomonas aeruginosa [15]) of 64 µg/mL (≈ 125 µM). It also gave an MIC (Escherichia coli [16]) of over 128 µg/mL, an MIC [17] of 128 µg/mL (≈ 251 µM) and an MIC (Escherichia coli [18]) of 1 µg/mL (≈ 1.96 µM). The MIC (Staphylococcus aureus [19]) was 0.5 µg/mL (≈ 0.979 µM), the MIC (Streptococcus pneumoniae) was 64 µg/mL (≈ 125 µM) and the MIC (Enterococcus faecalis [20]) was over 128 µg/mL. The MIC (Enterococcus faecium [21]) was 16 µg/mL (≈ 31.3 µM), the MIC (Staphylococcus aureus [22]) was over 128 µg/mL and the MIC (Klebsiella pneumoniae [23]) was over 128 µg/mL. It also gave an MIC (Pseudomonas aeruginosa [24]) of 16 µg/mL (≈ 31.3 µM), an MIC [25] of over 128 µg/mL and an MIC (Pseudomonas aeruginosa [26]) of 128 µg/mL (≈ 251 µM). It also gave an MIC (Enterococcus faecium [27]) of over 128 µg/mL, an MIC (Klebsiella pneumoniae [28]) of over 128 µg/mL and an MIC (Staphylococcus aureus [29]) of 0.25 µg/mL (≈ 0.489 µM). For the same compound, the MIC (Klebsiella pneumoniae [30]) was over 128 µg/mL, the MIC (Pseudomonas aeruginosa [31]) was 64 µg/mL (≈ 125 µM) and the MIC [32] was over 128 µg/mL. For the same compound, the MIC (Staphylococcus aureus [33]) was over 128 µg/mL, the MIC [34] was over 32 µg/mL and the MIC (Pseudomonas aeruginosa [35]) was 128 µg/mL (≈ 251 µM). It also gave an MIC (Enterococcus faecalis [36]) of over 128 µg/mL.
